Laboratory results taken from ChEMBL document CHEMBL5252554, “Stereodivergent Hydroxylation of Berkeleylactones by Penicillium turbatum” (J Nat Prod, 2023).
In brackets after ≈: the same amount, converted by molar mass.

Experiments:
[1] = Antiproliferative activity against mouse NS-1 cells assessed as cell growth inhibition measured after 72 hrs by resazurin dye based assay; assay type: functional; conditions: for IC50: NS1, 72 h
Giardia intestinalis = assay: Antiprotozoal activity against Giardia duodenalis 713 assessed as protozoal growth inhibition measured after 96 hrs under anaerobic conditions; assay type: functional
Staphylococcus aureus = assay: Antibacterial activity against Staphylococcus aureus ATCC 25923 assessed as bacterial growth inhibition measured after 48 hrs by resazurin dye based assay; assay type: functional
Escherichia coli = assay: Antibacterial activity against Escherichia coli ATCC 25922 assessed as bacterial growth inhibition measured after 48 hrs by resazurin dye based assay; assay type: functional, organism-based
Bacillus subtilis = assay: Antibacterial activity against Bacillus subtilis ATCC 6633 assessed as bacterial growth inhibition measured after 48 hrs by resazurin dye based assay; assay type: functional
Saccharomyces cerevisiae = assay: Antifungal activity against Saccharomyces cerevisiae ATCC 9763 assessed as fungal growth inhibition measured after 48 hrs by bromocresol green staining based method; assay type: functional

Row | Compound | IC50 [1] | MIC (Staphylococcus aureus) | MIC (Bacillus subtilis) | other results
1 | C[C@@H]1C[C@@H](O)CCCCCCC[C@H](O)[C@H](O)/C=C/C(=O)O1 | 32 µM | 50 µg/mL |  | LD99 (Giardia intestinalis): 50 µg/mL
2 | GENTAMICIN |  | 0.8 µM | 0.8 µM | MIC (Escherichia coli): 1.7 µM
3 | C[C@@H]1[C@H](O)[C@@H](C)/C=C/C=C/C=C/C=C/C=C/C=C/C=C/[C@H](O[C@@H]2O[C@H](C)[C@@H](O)[C@H](N)[C@@H]2O)C[C@@H]2O[C@](O)(C[C@@H](O)C[C@@H](O)[C@H](O)CC[C@@H](O)C[C@@H](O)CC(=O)O[C@H]1C)C[C@H](O)[C@H]2C(=O)O [AMPHOTERICIN B] |  |  |  | MIC (Saccharomyces cerevisiae): 0.3 µM (≈ 0.277 µg/mL)
4 | CO[C@@]12[C@H](COC(N)=O)C3=C(C(=O)C(C)=C(N)C3=O)N1C[C@@H]1N[C@@H]12 [MITOMYCIN] |  |  |  | MIC ([1]; time 72 hrs): 0.93 µM (≈ 0.311 µg/mL)
5 | COC(=O)CCC(=O)O[C@H]1CCCCCCCCC[C@@H](C)OC(=O)/C=C/[C@H]1O | 5.9 µM | 25 µg/mL | 12.5 µg/mL | 
6 | C[C@@H]1CCCCCCCCC[C@H](OC(=O)CCC(=O)O)C(=O)/C=C/C(=O)O1 | 3.1 µM | 0.4 µg/mL |  | 
